Patent publication US5334716A, “Heterocyclic derivatives” (Fujisawa Pharmaceutical Co., Ltd., priority 1991, dated 1994)

Molecular target: prostatic testosterone 5α-reductase
Experiment: Inhibitory activity on testosterone 5α-reductase in rats
Type: biochemical, rat (Spraque-Dawley)
Details: rat ventral prostate 5α-reductase suspension, 3H-testosterone 2.2×10^-9 M, 50 μM NADPH, pH 6.5, 37° C., 30 minutes
Description: [2] Inhibitory activity on testosterone 5α-reductase in rats
1,2,6,7-^3 H-Testosterone (85-105 Ci/mmol) is a mixture of 1,2,6,7-^3 H-testosterone and testosterone which includes 85-105 Ci of 1,2,6,7-^3 H-testosterone per mmol of testosterone and is purchased from New England Nuclear, Boston, Mass., U.S.A.
Aquazol-2 (Aquazol-2 Universal LSC Cocktail): trademark, purchased from New England Nuclear, Boston, Mass., U.S.A. ii) Preparation of prostatic testosterone 5α-reductase
Mature Spraque-Dawley male rats (7-8 weeks old) were sacrificed by diethyl ether. The ventral prostates were dissected to be free of their capsules and their combined volume was measured by displacement in several milliliters of ice-cold medium A (0.32M sucrose, 0.1 mM dithiothreitol and 20 mM sodium phosphate, pH 6.5). Unless specified, all the following procedures were carried out at 0°-4° C. The prostates were drained, minced, and then homogenized in 3-4 tissue volumes of medium A with Pyrex-glass homogenizer. The homogenate was fractioned by differential centrifugations at […]. The resulting pellets were resuspended in medium A. The suspension (20-30 mg protein/ml) was stored at -80° C. […]
iii) Testosterone 5α-reductase assay
The reaction solution contains 1 mM dithiothreitol, 40 mM sodium phosphate pH 6.5, 50 μM NADPH, 1,2,6,7-^3 H-testosterone/testosterone (2.2×10^-9 M) and the suspension prepared above (0.8 mg of protein) in a total volume of 565 μl. Test Compound was added in 10 μl of 10% ethanol whereas control tubes received the same volume of 10% ethanol. The reaction was started with the addition of the enzyme suspension. After incubation at 37° C. for 30 minutes, the reaction was extracted with 1 ml of ethyl acetate. Fifty μl of ethyl acetate phase was chromatographed on a Merck silica plastic sheet Kieselgel 60 F254, using ethyl acetate: cyclohexane (1:1) as the developing solvent system. The plastic sheet was air dried and cut the testosterone and the 5α-dihydrotestosterone areas. The radioactivity was counted in 5 ml of Aquazol-2 in Packard scintillation counter (PACKARD TRI - CARB 4530), and an inhibitory ratio was calculated.

Row | Compound | IC50 [nM]
1 | CCC(Oc1ccc(C(=O)c2cc(CCCC(=O)O)n3ccccc23)cc1)c1ccc(CC(C)C)cc1 (centres unmarked) [(4), 4-[1-[4-[1-(4-Isobutylphenyl)propyloxy]benzoyl]indolizin-3-yl]butyric acid] | 0.55
2 | CC(C)Cc1ccc(C(Nc2ccc(C(=O)c3cc(CCCC(=O)O)n4ccccc34)cc2)c2ccc(CC(C)C)cc2)cc1 [(2), 4-[1-[4-[Bis(4-isobutylphenyl)methylamino]benzoyl]indolizin-3-yl]butyric a cid] | 0.44
3 | CC(C)Cc1ccc(C(Oc2cccc(C(=O)c3cc(CCCC(=O)O)c4ccccn34)c2)c2ccc(CC(C)C)cc2)cc1 [(3), 4-[3-[3-[Bis(4-isobutylphenyl)methoxy]benzoyl]indolizin-1-yl]butyric acid] | 6.7

Other lines, results leading:

Row | IC50 [nM] | Compound
4 | 1.8 | CCCCC(Oc1ccc(C(=O)c2cc(CCCC(=O)O)n3ccccc23)cc1)c1ccc(CC(C)C)cc1 (centres unmarked) [(5), 4-[1-[4-[1-(4-Isobutylphenyl)pentyloxy]benzoyl]indolizin-3-yl]butyricacid]
5 | 2.3 | CC(C)Cc1ccc(C(Nc2cccc(C(=O)c3cc(CCCC(=O)O)c4ccccn34)c2)c2ccc(CC(C)C)cc2)cc1 [Compound (1), 4-[3-[3-[Bis(4-isobutylphenyl)methylamino]benzoyl]indolizin-1-yl]butyric a cid]
